Literature values, collected in patent US11207297B2, “Liquid pharmaceutical composition of clonidine” (SYRI LTD, priority 2016, dated 2021).

Conditions: after oral administration

- Absorption from the gastrointestinal tract: almost completely absorbed
Structure (SMILES): Clc1cccc(Cl)c1N=C1NCCN1 [clonidine, N-(2,6-dichlorophenyl)-4,5-dihydro-1H-imidazol-2-amine]
